# Article PMC6723713, “Purification, Characterization and Evaluation of Inhibitory Mechanism of ACE Inhibitory Peptides from Pearl Oyster (Pinctada fucata martensii) Meat Protein Hydrolysate” (Marine Drugs, 2019)
# Like-named read-outs stand apart in the source and are kept apart here. Where a SMILES comes first, the peptide text is derived from it.
# T1: Angiotensin-I-converting enzyme (ACE) (Oryctolagus cuniculus, UniProt P12822)
# T1 construct: purchased Sigma-Aldrich (Shanghai, China)
# T1 sequence (P12822 34-1310): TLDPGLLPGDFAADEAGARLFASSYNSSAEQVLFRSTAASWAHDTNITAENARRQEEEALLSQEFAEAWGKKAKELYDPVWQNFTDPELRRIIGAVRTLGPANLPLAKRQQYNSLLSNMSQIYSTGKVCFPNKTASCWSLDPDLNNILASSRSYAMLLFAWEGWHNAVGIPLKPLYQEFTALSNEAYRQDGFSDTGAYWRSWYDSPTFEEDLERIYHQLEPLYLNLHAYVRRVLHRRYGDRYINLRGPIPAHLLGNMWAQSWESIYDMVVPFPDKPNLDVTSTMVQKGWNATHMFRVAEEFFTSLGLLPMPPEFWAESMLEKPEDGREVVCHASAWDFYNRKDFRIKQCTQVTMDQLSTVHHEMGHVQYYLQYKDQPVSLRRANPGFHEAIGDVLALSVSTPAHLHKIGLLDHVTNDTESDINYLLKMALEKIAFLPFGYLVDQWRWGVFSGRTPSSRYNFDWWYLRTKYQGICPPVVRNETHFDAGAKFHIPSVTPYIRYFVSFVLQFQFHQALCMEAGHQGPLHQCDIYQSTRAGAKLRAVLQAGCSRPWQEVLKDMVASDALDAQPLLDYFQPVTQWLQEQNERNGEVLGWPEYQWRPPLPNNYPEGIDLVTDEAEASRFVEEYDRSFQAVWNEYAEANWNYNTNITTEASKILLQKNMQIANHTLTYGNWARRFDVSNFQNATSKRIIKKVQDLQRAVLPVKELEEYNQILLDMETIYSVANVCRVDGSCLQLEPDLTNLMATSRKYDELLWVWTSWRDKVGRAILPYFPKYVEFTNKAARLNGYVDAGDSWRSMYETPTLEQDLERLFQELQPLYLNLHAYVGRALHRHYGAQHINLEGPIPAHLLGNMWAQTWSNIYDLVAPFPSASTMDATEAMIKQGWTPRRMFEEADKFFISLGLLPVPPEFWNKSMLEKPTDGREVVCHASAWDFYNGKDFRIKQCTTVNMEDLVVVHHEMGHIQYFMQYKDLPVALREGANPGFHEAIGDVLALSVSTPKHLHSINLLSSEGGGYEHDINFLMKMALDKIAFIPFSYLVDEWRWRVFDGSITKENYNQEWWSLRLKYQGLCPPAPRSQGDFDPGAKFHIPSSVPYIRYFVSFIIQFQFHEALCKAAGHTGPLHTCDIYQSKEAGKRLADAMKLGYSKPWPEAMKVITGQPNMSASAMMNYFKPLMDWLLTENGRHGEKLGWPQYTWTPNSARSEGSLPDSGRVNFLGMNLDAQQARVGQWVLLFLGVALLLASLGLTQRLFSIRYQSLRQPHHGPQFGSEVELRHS
# T2: ACE (Oryctolagus cuniculus, UniProt P12822)
# T2 construct: purchased Sigma-Aldrich (Shanghai, China)
# T2 sequence (P12822 34-1310): T1 sequence (P12822 34-1310)
# T3: Angiotensin I converting enzyme (UniProt P12822)
# T3 sequence: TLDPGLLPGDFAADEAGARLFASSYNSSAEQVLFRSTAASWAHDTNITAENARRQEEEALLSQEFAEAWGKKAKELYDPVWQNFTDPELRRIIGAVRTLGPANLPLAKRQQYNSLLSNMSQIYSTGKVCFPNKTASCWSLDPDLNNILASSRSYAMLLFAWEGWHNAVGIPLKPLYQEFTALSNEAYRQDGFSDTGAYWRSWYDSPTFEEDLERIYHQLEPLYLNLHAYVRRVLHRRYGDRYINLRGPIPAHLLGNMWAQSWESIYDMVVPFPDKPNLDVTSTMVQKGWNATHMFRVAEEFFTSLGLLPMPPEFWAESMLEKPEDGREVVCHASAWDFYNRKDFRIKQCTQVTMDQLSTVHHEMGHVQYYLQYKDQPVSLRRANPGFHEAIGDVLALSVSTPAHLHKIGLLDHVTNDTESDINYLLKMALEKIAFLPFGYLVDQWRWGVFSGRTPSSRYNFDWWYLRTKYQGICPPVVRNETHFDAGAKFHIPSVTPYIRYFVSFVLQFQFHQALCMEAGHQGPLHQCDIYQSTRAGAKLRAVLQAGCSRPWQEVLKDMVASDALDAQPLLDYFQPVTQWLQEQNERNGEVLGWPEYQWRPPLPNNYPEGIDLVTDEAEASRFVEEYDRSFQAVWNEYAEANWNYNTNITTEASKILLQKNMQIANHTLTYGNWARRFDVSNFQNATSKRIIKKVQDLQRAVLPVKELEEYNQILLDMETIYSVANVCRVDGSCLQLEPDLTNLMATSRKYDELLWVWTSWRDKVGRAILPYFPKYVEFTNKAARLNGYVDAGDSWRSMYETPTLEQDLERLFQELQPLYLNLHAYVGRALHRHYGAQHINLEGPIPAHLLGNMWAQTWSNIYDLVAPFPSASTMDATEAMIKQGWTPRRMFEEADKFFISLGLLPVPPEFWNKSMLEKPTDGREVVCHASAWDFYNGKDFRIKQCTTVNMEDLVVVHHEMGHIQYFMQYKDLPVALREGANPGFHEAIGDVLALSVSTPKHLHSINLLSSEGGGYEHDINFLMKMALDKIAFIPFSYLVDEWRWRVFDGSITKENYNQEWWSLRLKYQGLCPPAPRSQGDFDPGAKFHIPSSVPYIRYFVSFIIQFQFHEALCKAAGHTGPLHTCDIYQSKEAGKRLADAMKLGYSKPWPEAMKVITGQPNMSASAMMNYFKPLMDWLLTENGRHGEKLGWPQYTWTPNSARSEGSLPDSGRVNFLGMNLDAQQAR
# What was measured:
# [1] = biological target: T1, Angiotensin-I-converting enzyme (ACE); assay: In vitro assay of ACE inhibitory activity; type: biochemical; settings: triplicate, mean ± SD; for ACE inhibitory activity: 0.54 mg/mL protein concentration, second RP-HPLC fractions; for IC50: logarithmic regression
# Procedure: ACE inhibitory activity in vitro was measured according to the reported method. The activity was determined for each step of separation, and fraction with the highest ACE inhibitory activity was collected for further purification. The IC50 value (the concentration of peptide inhibiting 50% of enzyme activity) was determined by logarithmic regression analysis.
# (§1) All the experiments were performed in triplicate and mean values with ± SD (standard deviation) were reported. All data were analyzed by one-way ANOVA, using SPSS 17.0 software (Chicago, IL, USA). A value of p < 0.05 was considered statistically significant.
# [2] = biological target: T2, ACE; assay: Inhibition pattern by Lineweaver-Burk plot; type: biochemical; settings: HHL 1-5 mM, HLHT 0, 295.86, 591.72 μM, GWA 0, 98.62, 197.24 μM, pre-incubated 37 °C 10 min, 5 min incubation with HHL, HPLC 228 nm
# Procedure: The inhibitory patterns of purified peptides HLHT and GWA on ACE were evaluated by incubating various concentrations (1, 2, 3, 4, and 5 mM) of HHL with ACE in the absence and presence of inhibitory peptides. The concentrations of HLHT were set as 0, 295.86, and 591.72 μM while those of GWA were set as 0, 98.62, and 197.24 μM. The purified ACE inhibitory peptide (30 µL) at various concentrations and ACE solution (30 µL) were mixed and pre-incubated at 37 °C for 10 min. Subsequently, HHL (40 µL) was added and incubated for 5 min at 37 °C. The reaction was terminated by adding 1 M HCl (150 µL). The released hippuric acid (HA) was quantified using HPLC at 228 nm. The ACE inhibitory pattern in the presence of the inhibitor was determined using the Lineweaver–Burk plot, where the reciprocal of HHL concentration was used as the independent variable (X-axis) and the reciprocal of production rate of HA as the dependent variable (Y-axis).
# [3] = tested on: SD rats; assay: Antihypertensive activity in SD rats, SBP and DBP after intravenous administration; type: in vivo; settings: 10 mg/kg
# Procedure: The antihypertensive efficacy of POMPH was evaluated in male SD rats (10 weeks old, 250 ± 30 g body weight, specific pathogen-free, provided by the animal experimental center of Guangxi medical University, China). All rats were cared and fed following the standards for laboratory animals established by People’s Republic of China (GB14925-2001) and animal handling followed the Declaration of Helsinki and the Guiding Principles in the Care and Use of Animals. The rats were exposed to intraperitoneal injection L-NNA (L-nitro-arginine) once a day for four weeks prior to the experiments. The POMPH at 10 mg/kg, dissolved in a vehicle of 0.9% NaCl, were intravenously administered. The concentration of HLHT and GWA in POMPH were 1.8 µg/mg and 1.2 µg/mg, respectively. The efficacy of POMPH on lowering SBP and diastolic blood pressure (DBP) was compared to that of captopril (10 mg/kg). Control rats were administrated with the same volume of saline solution. SBP and DBP were determined by the noninvasive tail cuff method using BP-2010 (Softron Beijing biotechnology Co., Ltd) at 0 min (before) and 5, 10, 20 and 45 min after the administration.
# as §1
# [4] = biological target: T2, ACE; settings: cited from earlier work
# Excerpt: Table 2 Summary of ACE inhibitory peptides having similar structure with purified peptides. | column: IC50 (μM) || Table 3 Inhibition pattern of ACE inhibitory peptides derived from marine products. | column: Inhibition Pattern; IC50 (μM)
# [5] = biological target: T3, Angiotensin I converting enzyme
# [6] = biological target: T3, Angiotensin I converting enzyme; remark: listed apart in the source
# [7] = synthesized peptide (98% purity)
molecule,measurement,setting,value
"C[C@H](NC(=O)[C@H](Cc1c[nH]c2ccccc12)NC(=O)CN)C(=O)O [GWA, Gly-Trp-Ala] (H-Gly-Trp-Ala-OH)",ACE inhibitory activity,[1],84.71 ± 1.27%
same,IC50,[1]; peptide purified from POMPH,109 ± 1.45 µM
same,IC50,[1]; [7],98.9 ± 5.73 µM
same,Inhibition Pattern,[2],competitive inhibition pattern
"CC(C)C[C@H](NC(=O)[C@@H](N)Cc1c[nH]cn1)C(=O)N[C@@H](Cc1c[nH]cn1)C(=O)N[C@H](C(=O)O)[C@@H](C)O [HLHT, His-Leu-His-Thr] (H-HLHT-OH)",ACE inhibitory activity,[1],64.73 ± 1.32%
same,IC50,[1]; peptide purified from POMPH,458.1 ± 3.24 µM
same,IC50,[1]; [7],452.2 ± 2.36 µM
C[C@H](CS)C(=O)N1CCC[C@H]1C(=O)O [captopril],"change in SBP vs control, in words",[3]; 0-45 min,significant decrease in SBP
same,maximum decrease in SBP,"[3]; 20 min, male L-NNA-treated SD rats, tail cuff",27.0 mmHg
same,SBP beyond 20 min,[3]; beyond 20 min (to 45 min),remained stable
same,"change in DBP vs control, in words",[3]; in comparison with control group,significantly changed in comparison with control group
same,DBP after 20 min of intravenous administration,"[3]; ""decreased to"", 20 min, male L-NNA-treated SD rats, tail cuff",39.5 mmHg
CRQHTLGHNT-QTSIAQ,Inhibition Pattern,[4]; ref [32],Non-competitive
CRQHTLGHNT-QTSIAQ (CRQHTLGHNTQTSIAQ),IC50,[4]; ref [32],80 µM
EVSQGRP,IC50,[4]; ref [32],50 µM
same,Inhibition Pattern,[4]; ref [32],Mixed inhibition
FEDYVPLSCF,IC50,[4]; ref [31],10.8 µM
same,Inhibition Pattern,[4]; ref [31],Mixed inhibition
GDLGKTTTVSN-WSPPKYKDTP,Inhibition Pattern,[4]; ref [33],Non-competitive
GDLGKTTTVSN-WSPPKYKDTP (GDLGKTTTVSNWSPPKYKDTP),IC50,[4]; ref [33],11.3 µM
GWAP,IC50,[4]; ref [28],3.86 µM
"Gly-Trp-Ala, purified from pearl oyster meat protein hydrolysate (fraction F62) (peptide)",ACE inhibitory activity (%) of fraction F62 at a protein concentration of 0.54 mg/mL,[5],84.7%
same,"IC50 of ACE inhibitory activity (enzyme activity on HHL), peptide purified from POMPH",[6],109 µM
"Gly-Trp-Ala, synthesized (peptide)","IC50 of ACE inhibitory activity (enzyme activity on HHL), synthesized peptide",[6],98.9 µM
HLPLP,IC50,[4]; ref [28],41 µM
HLPLPLL,IC50,[4]; ref [28],34.4 µM
IWHHT,IC50,[4]; ref [28],5.1 µM
VELYP,IC50,[4]; ref [34],5.22 µM
same,Inhibition Pattern,[4]; ref [34],Non-competitive
VVYPWTTQRF,IC50,[4]; ref [35],66 µM
same,Inhibition Pattern,[4]; ref [35],Non-competitive
VWDPPKFD,IC50,[4]; ref [31],9.1 µM
same,Inhibition Pattern,[4]; ref [31],Non-competitive
VWYHT,IC50,[4]; ref [28],28.3 µM
"HLHT [His-Leu-His-Thr, synthesized]","IC50 of ACE inhibitory activity (enzyme activity on HHL), synthesized peptide",[6],452 µM
"HLHT [His-Leu-His-Thr, purified from pearl oyster meat protein hydrolysate (fraction F51)]",ACE inhibitory activity (%) of fraction F51 at a protein concentration of 0.54 mg/mL,[5],64.7%
same,"IC50 of ACE inhibitory activity (enzyme activity on HHL), peptide purified from POMPH",[6],458 µM
